Experimental data from patent publication US10472344B2, “Factor XIa inhibitors” (MERCK SHARP & DOHME CORP., priority 2015, dated 2019).

Legend:
[1] = molecular target: purified Human plasma kallikrein (Homo sapiens (Human), UniProt P03952); experiment: Kallikrein Assay; format: biochemical; settings: fluorogenic substrate Acetyl-K-P-R-AFC, 0.5 nM enzyme, pH 7.4; Ki from IC50 by Cheng Prusoff
Method: (§1) The effectiveness of a compound of the present invention as an inhibitor of Kallikrein can be determined using a relevant purified serine protease, and an appropriate synthetic substrate. The rate of hydrolysis of the chromogenic or fluorogenic substrate by the relevant serine protease was measured both in the absence and presence of compounds of the present invention. Assays were conducted at room temperature or at 37° C. […] A decrease in the rate of fluorescence change in the presence of inhibitor is indicative of enzyme inhibition. Such methods are known to one skilled in the art. The results of this assay are expressed as the inhibitory constant, Ki.
Kallikrein determinations were made in 50 mM HEPES buffer at pH 7.4 containing 150 mM NaCl, 5 mM CaCl2, and 0.1% PEG 8000 (polyethylene glycol; Fisher Scientific). Determinations were made using purified Human plasma kallikrein at a final concentration of 0.5 nM (Enzyme Research Laboratories) and the synthetic substrate, Acetyl-K-P-R-AFC (Sigma #C6608) at a concentration of […].
Activity assays were performed by diluting a stock solution of substrate at least tenfold to a final concentration≤0.2 Km into a solution containing enzyme or enzyme equilibrated with inhibitor. Times required to achieve equilibration between enzyme and inhibitor were determined in control experiments. The reactions were performed under linear progress curve conditions and fluorescence increase measured at 405 Ex/510 Em nm. Values were converted to percent inhibition of the control reaction (after subtracting 100% Inhibition value). IC50 was determined by inflection point from a four parameter logistic curve fit. Ki was calculated using the Cheng Prusoff equation, Ki=IC50/(1+([S]/Km)).

[2] = molecular target: purified human Factor XIa (Homo sapiens (Human), UniProt P03951); experiment: Factor XIa Assay; format: biochemical; settings: fluorogenic substrate Z-Gly-Pro-Arg-AFC, 40 pM enzyme, pH 7.4; read-out: Human FXIa Ki
Method: as §1, with “Coagulation Factor XIa” for “Kallikrein”
Factor XIa determinations were made in 50 mM HEPES buffer at pH 7.4 containing 150 mM NaCl, 5 mM CaCl2, and 0.1% PEG 8000 (polyethylene glycol; JT Baker or Fisher Scientific). Determinations were made using purified human Factor XIa at a final concentration of 40 pM (Sekisui Diagnostics) and he synthetic substrate, Z-Gly-Pro-Arg-AFC, TFA salt (Sigma #C0980) at a concentration of […].
Activity assays were performed by diluting a stock solution of substrate at least tenfold to a final concentration ≤0.1 Km into a solution containing enzyme or enzyme equilibrated with inhibitor. Times required to achieve equilibration between enzyme and inhibitor were determined in control experiments. Initial velocities of product formation in the absence (V0) or presence of inhibitor (V1) were measured. Assuming competitive inhibition, and that unity is negligible compared Km/[S], [I]/e, and [I]/e (where [S], [I], and e respectively represent the total concentrations, of substrate, inhibitor and enzyme), the equilibrium constant (Ki) for dissociation of the inhibitor from the enzyme can be obtained from the dependence of V0/Vi on [I] shown in the following equation. V0/Vi=1+[I]/Ki

Chain of purified human Factor XIa (P03951 388-625): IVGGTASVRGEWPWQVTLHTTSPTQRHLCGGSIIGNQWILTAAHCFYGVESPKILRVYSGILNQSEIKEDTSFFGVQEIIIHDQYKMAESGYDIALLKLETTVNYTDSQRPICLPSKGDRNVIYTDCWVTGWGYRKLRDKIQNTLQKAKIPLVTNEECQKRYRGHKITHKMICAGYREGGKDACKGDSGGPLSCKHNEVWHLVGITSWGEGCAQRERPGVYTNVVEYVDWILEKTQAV
Chain of purified human Factor XIa (P03951 19-387 partner): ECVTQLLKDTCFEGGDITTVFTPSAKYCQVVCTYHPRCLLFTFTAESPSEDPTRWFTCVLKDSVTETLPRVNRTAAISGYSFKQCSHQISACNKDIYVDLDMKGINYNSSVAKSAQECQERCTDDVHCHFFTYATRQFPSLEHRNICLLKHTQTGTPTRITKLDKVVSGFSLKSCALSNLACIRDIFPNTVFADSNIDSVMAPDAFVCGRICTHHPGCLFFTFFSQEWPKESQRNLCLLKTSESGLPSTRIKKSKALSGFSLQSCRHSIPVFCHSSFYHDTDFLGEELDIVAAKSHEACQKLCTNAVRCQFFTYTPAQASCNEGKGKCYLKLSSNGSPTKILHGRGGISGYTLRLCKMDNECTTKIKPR
Chain of purified Human plasma kallikrein (P03952 391-638): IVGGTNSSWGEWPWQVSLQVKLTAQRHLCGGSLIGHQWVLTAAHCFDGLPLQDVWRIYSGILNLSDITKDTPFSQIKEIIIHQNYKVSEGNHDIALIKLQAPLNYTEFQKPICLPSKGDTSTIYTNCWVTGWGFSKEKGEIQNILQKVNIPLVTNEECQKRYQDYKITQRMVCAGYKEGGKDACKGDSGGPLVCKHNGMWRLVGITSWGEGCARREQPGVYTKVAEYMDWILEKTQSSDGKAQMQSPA
Chain of purified Human plasma kallikrein (P03952 20-390 partner): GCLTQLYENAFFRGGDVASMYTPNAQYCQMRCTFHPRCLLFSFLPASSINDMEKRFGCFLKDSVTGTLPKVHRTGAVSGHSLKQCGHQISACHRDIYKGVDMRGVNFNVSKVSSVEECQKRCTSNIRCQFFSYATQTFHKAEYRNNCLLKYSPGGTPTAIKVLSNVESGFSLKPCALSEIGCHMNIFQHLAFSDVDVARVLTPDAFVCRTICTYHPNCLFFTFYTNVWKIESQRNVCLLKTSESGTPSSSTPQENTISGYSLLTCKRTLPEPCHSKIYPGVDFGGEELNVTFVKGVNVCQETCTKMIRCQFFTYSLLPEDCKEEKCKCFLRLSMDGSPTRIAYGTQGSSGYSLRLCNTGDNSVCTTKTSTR

| Ki [1] | Ki [2] | Structure (SMILES) |
| --- | --- | --- |
| 105 nM | 3.6 nM | COC(=O)Nc1ccc(C(=O)N[C@@H](Cc2ccccc2)c2ccc(-c3cc(Cl)ccc3-n3cnnn3)c[n+]2[O-])cc1 [Example 2, (S)-5-(5-chloro-2-(1H-tetrazol-1-yl)phenyl)-2-(1-(4-((methoxycarbonyl)amino)benzamido)-2-phenylethyl)pyridine 1-oxide] |
| – | 83 nM | O=C(O)c1ccc(C(=O)NC(Cc2ccccc2)c2ccc(-c3cc(Cl)ccc3-n3cnnn3)c[n+]2[O-])cc1 (stereo not drawn) [Example 5] |
| 219 nM | 6.9 nM | O=C(O)c1ccc(C(=O)N[C@@H](Cc2ccccc2)c2ccc(-c3cc(Cl)ccc3-n3cnnn3)c[n+]2[O-])s1 [Example 6] |
| 516 nM | 20 nM | COCC(=O)Nc1ccc(C(=O)N[C@@H](Cc2ccccc2)c2ccc(-c3cc(Cl)ccc3-n3cnnn3)c[n+]2[O-])cc1 [Example 7] |

More lines, now with the values behind:

| Structure (SMILES) | Ki [1] | Ki [2] |
| --- | --- | --- |
| Nc1n[nH]c2cc(C(=O)N[C@@H](Cc3ccccc3)c3ccc(-c4cc(Cl)ccc4-n4cnnn4)c[n+]3[O-])ccc12 [Example 1, (S)-2-(1-(3-AMMONIO-1H-INDAZOLE-6-CARBOXAMIDO)-2-PHENYLETHYL)-5-(5-CHLORO-2-(1H-TETRAZOL-1-YL)PHENYL)PYRIDINE 1-OXIDE 2,2,2-TRIFLUOROACETATE] | 25 nM | 0.9 nM |
| COC(=O)Nc1cccc(C(=O)NC(Cc2ccccc2)c2ccc(-c3cc(Cl)ccc3-n3cnnn3)c[n+]2[O-])c1 (stereo not drawn) [Example 3] | – | 144 nM |
| NC(=O)c1ccc(C(=O)N[C@@H](Cc2ccccc2)c2ccc(-c3cc(Cl)ccc3-n3cnnn3)c[n+]2[O-])s1 [Example 4] | 36 nM | 1.3 nM |
